Measured values reported in patent US9962395B2, “Compositions and methods for maintaining cognitive function” (The Regents of the University of California, priority 2014, dated 2018).
“Also recorded” adds a separate entry of the source.

Experiments:
Type in all cases: in vivo
[1] = tested on: hippocampal CA1 of ovariectomized (OVX) mice; assay: Hippocampal slice electrophysiology: long term potentiation (LTP) in CA1 after high-frequency stimulation
Description: FIGS. 1A and 1B. Estriol partially recovers long term potentiation (LTP) in the hippocampal CA1 of ovariectomized (OVX) mice. (A) LTP induced by 2×100 Hz HFS in sham-placebo treated mice (open squares, n=4) is reduced in OVX-placebo treated mice (gray circles, n=4). Estriol-treated OVX mice show improved synaptic strength (black circles, n=4). Representative traces are superimposed average fEPSPs recorded at baseline and during final 15 minutes after HFS. Estriol (5 mg) or placebo was administered as subcutaneous pellets. Calibration: 2 mV, 5 ms. (B) Summary showing fEPSP slopes during baseline (Pre) and in final 15 minutes after HFS (Post). […] Statistics RM-ANOVA, Tukey's multiple comparison test, ****p≤0.0001.
Electrophysiology to assess excitatory synaptic transmission is an accepted biomarker for cognitive function in mice, which specifically tests long term potentiation (LTP) during stimulation of the region of the brain responsible for memory, the CA1 region of the hippocampus. Hippocampal electrophysiology was examined in slices from sham surgical mice treated with placebo (SP), ovariectomized mice treated with placebo (OP), and ovariectomized mice treated with estriol (OE). […] LTP was reduced in OP mice as compared to SP mice, consistent with the known deleterious effects upon loss of peripheral estrogen on neurotransmission (FIG. 1).

[2] = tested on: PSD-95; assay: PSD-95 synaptic protein expression in dorsal hippocampus (western blot, immunofluorescence); conditions: OVX mice treated with estriol, n=2
Source text: FIG. 4 consists of two panels, labeled panels (A) and (B). Estriol partially recovers synaptic levels of PSD-95 in the dorsal hippocampus following OVX. Panel A: levels of PSD-95 are decreased in the dorsal hippocampus in OVX-Placebo mice (n=2) compared to Sham-Placebo mice (n=2). […] Scale bar=20 μm, 40× objective.
Expression of PSD-95 in the CA1 stratum radiatum was shown by both immunofluorescence and by western blot (FIG. 4)

[3] = tested on: ovariectomized female C57BL/6 mice; assay: Morris water maze (spatial memory) in ovariectomized mice
Description: (§1) FIG. 5. Peripheral estrogens improve performance on the Morris water maze via ERP expressed on neurons. Healthy female C57BL/6 were tested for cognitive performance (spatial memory) using the Morris water maze, whereby mice learn to spend more time in a target quadrant (TQ) as compared to three other quadrants (OQ). […] (Bottom graph) To determine (a) whether ER beta is required for proper learning and, more specifically, (b) whether ER beta expression in neurons is required for learning, mice were generated that had ER beta conditionally knocked out using CreLox technology, with Cre driving the knock out in neurons via the neuron-specific enolase (NSE) promoter. […] (***p≤0.001, ANOVA-Sidak's posttest). […] The dashed line on the graphs indicates the time expected to be spent in a quadrant by random chance in the absence of learning (25%).
Ovariectomized mice (OVX-Placebo) display worse performance in the Morris water maze than control mice (Sham-Placebo) (FIG. 5, top panel). The administration of an estriol improves performance in ovariectomized mice (OVX-Estriol) (FIG. 5, top panel).

[4] = tested on: NSE-Cre:ERβ^fl/fl mice; assay: Morris water maze in mice with neuronal conditional knockout of ER beta; conditions: OVX estriol-treated NSE-Cre:ERβ^fl/fl mice, n=7
Description: as §1
Thus, estrogen receptor β ligands can likely protect against neuronal defects and disability during neurodegenerative processes. This is consistent with the observation that estriol improved performance since it is a known that estriol is an agonist for various estrogen receptors including estrogen receptor β.

[5] = tested on: post-menopausal female patients; assay: Randomized, double-blind, placebo-controlled human clinical trial of estriol and norethindrone in menopause; conditions: oral estriol 2, 4, 6 or 8 mg/day, 36-month treatment, women
Description: This example describes a randomized, double-blind, placebo-controlled human clinical trial for the treatment of menopause estriol and norethindrone.
Women who are taking hormone replacement therapy are excluded from the trial.
Patients are randomized to oral estriol (2 mg/day, 4 mg/day, 6 mg/day, or 8 mg/day) or to placebo for a 36-month treatment duration. Gynecologists examine the patients before, during, and after the study. Each patient is examined at three- to six-month intervals during the trial. Patients also undergo mammograms before and after the study. In addition, at baseline, 3 months, 6 months, 12 months, 18 months, 24, months, 30 months, and 36 months, the investigators measure participants' estriol levels, and assess cognitive abilities.
A total of 100 patients receive estriol, and 100 patients receive placebo. Baseline characteristics are similar in both patient groups. Participants' mean age at entry is approximately 52 years. […] To ensure breast and uterus safety, every three months the patients take norethindrone 0.7 mg once a day for 14 days.

Estriol levels in serum [5]: in early pregnancy range
SMILES: C[C@]12CC[C@@H]3c4ccc(O)cc4CC[C@H]3[C@@H]1C[C@@H](O)[C@@H]2O [estriol]
LTP versus OVX-placebo mice (in words) ([1]; OVX mice treated with estriol for 9 weeks, RM-ANOVA, Tukey, p≤0.0001): significantly improved over OP mice; also recorded: significant improvement in LTP deficit from ovariectomy | fEPSP slope in final 15 minutes after HFS (Post), Mean±SE post-HFS ([1]; OVX mice, estriol 5 mg subcutaneous pellet, 2×100 Hz HFS, n=4, sham-placebo 159.6±0.2, OVX-placebo 141.6±0.5): 150.4±0.4 | PSD-95 levels in dorsal hippocampus / CA1 stratum radiatum versus OVX-placebo [2]: increased expression of PSD-95; also recorded: elevated PSD-95 levels | % duration in target quadrant (TQ) versus other quadrants (OQ), learning ([3]; OVX mice, 20 days of 5 mg, 90 day release estriol implants, n=7, p≤0.01): significant preference for the TQ over OQ; also recorded: ability to learn may be restored | average latency to platform during acquisition training ([3]; Sham-Placebo vs OVX-Placebo vs OVX-Estriol, 3 trials/mouse/day, RM-ANOVA p>0.05): no difference was observed | % duration in TQ versus OQ, estriol rescue of learning in ER beta neuronal knockout [4]: estrogen-mediated improvement is lost; also recorded: the ability of estriol to rescue learning is mediated by ER beta expression in neurons
